Results on 1 compound are retold here after patent publication US5744492A, “Method for inhibiting angiogenesis” (United States of America, priority 1994, dated 1998).

Common to all, as to assay type: cell-based, human
Assay [1] has as its system HUVECs. The assay is described as follows: HUVEC proliferation (crystal violet), 10% serum with ECGS. The settings on record: for IC50: Homo sapiens, HUVEC, 10% serum with ECGS, n=3. The procedure:
(§1) Human umbilical vein endothelial cells (H 930) were generously supplied by Dr. Tom Maciag, American Red Cross (Gaithersburg, Md., USA) and were used between passages 9 and 14 to avoid senescence. HUVECs were grown on fibronectin-coated tissue culture plastic (200 μg/150 mm dish) in complete medium (Medium 199 (M-199) containing 5 U/mL preservative-free heparin, 25.5 μg/mL ECGS, 10% fetal bovine serum and 100 U/mL penicillin, 100 μg/mL streptomycin, and 0.25 μg/mL fungizone).
The effect of compound 1 on HUVEC proliferation was examined over a 5 day period of culture. Cell monolayers were incubated with increasing concentrations of compound 1 and evaluated incrementally for growth inhibition.
Growth inhibition of HUVECs by compound 1 was measured by crystal violet nuclear stain. Briefly, 50,000 cells were seeded per well in 24 well plates using complete medium in the presence of increasing concentrations of compound 1 (0.01-10 μM) or DMS0 vehicle control (0.1%) and cultures were incubated for 24-120 hours. After incubation, cells were washed carefully with Dulbecco's phosphate-buffered saline (DPBS), fixed and stained with 0.5% crystal violet in 20% methanol. Excess stain was removed with water, the cell monolayers were air-dried, and then bound stain was eluted with a 1:1 solution of 0.1N sodium citrate (pH 4.2): 100% ethanol. Optical density of the eluted samples was determined at 540 nm and the results were expressed as percent of DMSO control cell growth. Data are expressed as percentage of control value and are presented as mean±SEM (n=3).

For assay [2], the system named is HUVECs. In words: HUVEC adhesion to basement membrane substrata. The procedure:
as §1
Adhesion of control and compound 1-treated HUVECs to specific substrata was tested as follows. Glass slides coated with specific adhesion substrata were prepared by placement of 10 μL aliquots of 25 nM each fibronectin,laminin, gelatin or type IV collagen into triplicate wells of multichamber slides. Slides were incubated at 37° C. for 2 hours and then air-dried overnight. The following day the slides were blocked with 300 μL of blocking buffer (Tris […] pH 7.8, NaCl 111 mM, CaCl2 5 mM, and 1% BSA) for 30 min at 37° C. HUVECs were harvested with trypsin-EDTA and allowed to recover at 37° C. in complete medium for at least 1 hr. The cells were then washed free of serum and resuspended at 1×10^6 cells/mL in control medium followed by addition to the coated wells (200 μL) and incubation at 37° C. for 90 min. After incubation, the slides were washed gently three times with DPBS and the adherent cells were fixed and stained as above. Five high power fields per well in triplicate were counted to determine the number of cells attached to the different substrata. Data are expressed as percentage of control cell adhesion (x±SEM, n=3).

For assay [3], the system named is HUVECs. In words: HUVEC motility (modified Boyden chamber chemotaxis). The settings on record: 18 hr preincubation. The procedure: as §1
A modified Boyden chamber system was used to determine whether compound 1 could modulate the chemotactic stimulation of endothelial cells by fibronectin, laminin, type IV collagen or thrombospondin. The particular system used has been described for tumor cell motility. See, Minniti, et al., J. Biol. Chem. 267:9000-9004 (1992). Modifications were made as to cell number, membrane pore size, and time of incubation were tested to determine optimal conditions for the HUVECs.
HUVECs were pretreated as described above for adhesion and resuspended at 2×10^6 cells/mL in M-199 containing 0.1% bovine serum albumin. Cells were seeded in the upper compartment of the chamber separated from the lower compartment by a gelatin-coated Nucleopore filter with 8μ pores. Laminin (100 μg/mL), fibronectin (30 μg/mL), type IV collagen (100 μg/mL) or thrombospondin (20 μg/mL) were diluted from stock solutions into control medium (M-199 plus 0.1% BSA) and were used as chemoattractants in the lower chamber. HUVECs were incubated with DMSO control (0.1%) or compound 1 (0.1-10 μM) for 18 hr prior to the motility assay. Compound 1 and DMSO were maintained with the cells throughout the experiment. Assays were incubated at 37° C. for 2 hours after which the filters were removed, fixed, and stained. Cell migration was quantited by counting five high power fields in triplicate pellets of migrated cells. Results are expressed as percentage of control cell migration (x±SEM, n=3).

Assay [4] deals with MMP-2. The assay is described as follows: Gelatin zymography of HUVEC conditioned medium, MMP-2 gelatinase activity (basal). The following applies: 24 hr. As to the method:
as §1
Angiogenesis is characterized by a local degradation of subendothelial basement membrane by endothelial cell-secreted gelatinases. Aliquots of concentrated HUVEC conditioned medium from compound 1-treated and control cells were subjected to gelatin zymography, in order to test the effect of compound 1 on metalloproteinase production.
Gelatin zymography was carried out as described in Brown, et al., Cancer Research 50:6184-6191 (1990). HUVECs were seeded at 1.2×10^5 /cm^2 in 25 cm^2 fibronectin-coated tissue culture flasks in complete medium containing increasing concentrations of compound 1 (0.1-10 μM) or DMSO vehicle control. After 18 hr of culture, the complete medium was removed and the cells were washed once with serum-free M-199 supplemented with 5 μg/mL bovine insulin, 5 μg/mL human transferrin and 5 ng/mL sodium selenite (ITS). […]

For `NC(=O)c1nnn(Cc2cc(Cl)c(C(=O)c3ccc(Cl)cc3)c(Cl)c2)c1N` [Compound 1, 5-amino-1-(4-(4-chlorobenzoyl)-3,5-dichlorobenzyl)1,2,3-triazole-4-carboxamide], the “inhibition of endothelial cell proliferation (in words)” value in assay [1] (0.01-10 μM, 24, 72 and 120 hrs) is on record as “dose-dependent but not time-dependent inhibition”. Also, the 50% inhibitory concentration (IC50) in assay [1] (24 h, 1 day of culture) was found to be 1310 ± 30 nM; in assay [1] (72 h, 3 days of culture) it was 2140 ± 30 nM; in assay [1] (120 h, 5 days of culture), 2080 ± 10 nM. The “inhibition of HUVEC adhesion to all substrata tested (in words)” value in assay [2] (0-10 μM, 18 hr pretreatment) is “inhibited in a dose-dependent fashion”. Also, the “inhibition of HUVEC adhesion to collagen type IV (in words)” value in assay [2] (1.0 μM, 18 hr pretreatment, P2<0.027) was “statistically significant”; in assay [2] (10.0 μM, 18 hr pretreatment, p2<0.025), “statistically significant”. In addition, the “inhibition of HUVEC adhesion to laminin (in words)” value in assay [2] (1.0 μM, 18 hr pretreatment, P2<0.04) was “statistically significant”; in assay [2] (10.0 μM, 18 hr pretreatment, p2<0.004), “statistically significant”. The “inhibition of HUVEC adhesion to fibronectin (in words)” value in assay [2] (1.0 μM, 18 hr pretreatment, P2<0.043) is recorded as “statistically significant”; in assay [2] (10.0 μM, 18 hr pretreatment, p2<0.011), “statistically significant”. In assay [2] (preincubation of HUVECs with compound), the “inhibition of HUVEC adhesion to gelatin (in words)” value is on record as “did not significantly inhibit adhesion”. Further, the “inhibition of HUVEC motility towards type IV collagen (in words)” value in assay [3] (1 μM, P2, 0.018) was “statistically significant dose-dependent inhibition”. Besides, the “inhibition of HUVEC motility towards laminin (in words)” value in assay [3] (1 μM, P2<0.009) is reported as “statistically significant dose-dependent inhibition”. Moreover, the “inhibition of HUVEC motility towards all attractants (fibronectin, laminin, type IV collagen and thrombospondin) (in words)” value in assay [3] (10 μM, p2<0.001) was “statistically significant dose-dependent inhibition”. Besides, in assay [4] (0.1-10 μM), the “inhibition of proMMP-2 and its activated form (in words)” value is reported as “dose-dependent inhibition”. Besides, the inhibition at 10 µM in assay [4] (Homo sapiens, HUVEC, 10.0 μM, read-out: decrease in MMP-2 (densitometric analysis)) is 50%.

The IC50 is the midpoint of a concentration-inhibition curve. Read a low IC50 as higher potency.
